According to paper PMC5216877, “Exploring conformational equilibria of a heterodimeric ABC transporter” (eLife, 2017):
Read-outs that look alike come from different tables or passages of the source.

How the values were obtained:
TM287/288 [1] = assay: DEER two-Gaussian fit of IF/OF populations, wildtype TM287/288; parameters: species or system Thermotoga maritima; settings: estimated errors 10%
Protocol: All nucleotides and nucleotide analogs used in this study were added at saturating conditions well above their Ki values (Table 2). […] Therefore, the IF/OF fractions detected in the sample reflect the average life time that the nucleotide-bound transporter spends in either conformation. To rank the nucleotides in terms of their ability to support the transition to the OF conformation, we used three representative pairs in the wildtype transporter and the E-to-Q mutant: one in the extracellular region (50^TM287/271^TM287), one in the intracellular region (131^TM288/248^TM288) of the TMDs, and one in the NBDs (460^TM287/363^TM288) for which the distance peaks corresponding to the two states were distinguishable. A two-Gaussian fit of the DEER traces was performed to obtain the area of the corresponding IF and OF distance peaks (Figure 5—source data 1). The rank of nucleotides with respect to increasing fractions of the OF populations (Figure 5A) was: ADP-Mg ≈ AMP-PNP-Mg < ATP-EDTA < ATPγS-Mg < ATP-Mg < ATP-Vi-Mg. The order is similar for the wildtype and E-to-Q mutant transporter. However, the OF state is in general more populated in the E-to-Q mutant, which is best explained by an alteration of the energy profile caused by the mutation. This notion is best appreciated for ATP-EDTA and ATP-Mg, which could trigger an almost complete switch in the molecular ensemble of the E-to-Q mutant (Figure 5B).
The labeling efficiency of the double cysteine mutants of the transporters solubilized in detergent was measured at 25°C using an X-band Miniscope 400 EPR spectrometer (Magnettech by Freiberg Instrument). Samples were loaded into glass capillaries with the inner diameter of 0.9 mm and spectra were measured with 14 mT field sweep, 0.15 mT modulation amplitude, 2.5 mW microwave power. The calculated spin labeling efficiencies of the twelve mutants ranged between 70–90% (the second integral of the EPR spectra was calculated with the software available at spintoolbox.com). The high degree of labeling is correlated with the 0.3–0.4 modulation depths of all Q-band DEER traces presented. For DEER measurements, 10% v/v D8- glycerol was added prior to snap freezing. The range of final protein concentrations was 12 to 41 µM. 40 µL of sample were loaded in quartz tubes with 3 mm outer diameter. If not stated differently, samples were incubated at 25°C for 10 min (TM287/288 and MsbA) or 15 min (BmrCD) and snap frozen in liquid nitrogen. To study the effect of high physiological temperatures on the frozen dynamics of the transporter, samples were loaded in the quartz tubes, incubated for 3 min at 80°C on a heat block and snap frozen in a mixture of isopentane and liquid nitrogen to minimize the freezing time. […] The nucleotide analogs AMP-PNP-Mg and ATPγS-Mg (2.5 mM) were also prepared in the presence of 2.5 mM MgCl2. In case of ADP-Mg, 2.5 mM ADP and 2.5 mM MgCl2 were added.
Double electron-electron resonance (DEER) measurements were performed at 50 K on a Bruker ELEXSYS E580Q-AWG (arbitrary wave generator) dedicated pulse Q-band spectrometer equipped with a 150 W TWT amplifier. A 4-pulse DEER sequence with rectangular, non-selective observer and pump pulses of 14 or 16 ns length (depending on the available B1 at the sample) with 100 MHz frequency separation was used ([Polyhach et al., 2012]). Due to the coherent nature of the AWG generated pulses, a four-step phase cycling (0 – π/2 - π – 3/2π) of the pump π pulse was performed to remove unwanted effects of running echoes from the DEER trace. The evaluation of the DEER data was performed using DeerAnalysis2015 ([Jeschke et al., 2006]). The background of the primary DEER traces was corrected using stretched exponential functions with homogeneous dimensions of 1.5 to 3 for different samples. A model-free Tikhonov regularization was used to extract distance distributions from the background corrected form factors. […]

TM287/288 [2] = molecular target: T1, TM287/288 (Thermotoga maritima, UniProt Q9WYC3+Q9WYC4, C28S/C496S/C519S/C558S/C73S); assay: Inhibition of ATPase activity of TM287/288 by vanadate and nucleotides; type: biochemical; settings: for IC50: 500 µM ATP; for Ki: calculated from IC50 and Km
Protocol: Nucleotide binding and hydrolysis follow a complex mechanism in heterodimeric ABC exporters, due to the existence of a degenerate and a consensus site in the NBDs. […] Using the relation IC50=Ki(1+[S]/Km), Ki values for the respective nucleotides were determined (Table 2). […] It is well established that ATPγS is slowly hydrolyzed by ATPases, as for example the F1Fo-ATPase ([Turina and Capaldi, 1994]). […] It is reasonable to assume that TM287/288 is as well capable of slow ATPγS hydrolysis. In addition, we tested whether TM287/288 hydrolyzes AMP-PNP. In contrast to ATPγS, hydrolysis of AMP-PNP releases Pi, which can be detected by the molybdate/malachite green method.
(§1) in which f corresponds to the ATPase activity at the respective inhibitor concentration divided by the ATPase activity in the absence of inhibitor normalized to 100%, y0 corresponds to the residual activity at infinite inhibitor concentration, a corresponds to the maximal degree of inhibition (a+y0=100%) and x corresponds to the inhibitor concentration.
(§2) Ki values were calculated according to the formula Ki=IC50/(1+[S]/Km)
(§3) IC50 and Km values were obtained from data fitting as outlined above.
(§4) Standard errors for the Ki values were calculated by error propagation: σKi = (Km/Km+[S])^2 σIC502+ ([S]IC50/(Km+[S])^2)^2 σKm2
(§5) in which the σIC50 and σKm are standard errors obtained from data fitting in SigmaPlot and σKi is the standard error for Ki .

TM287/288 [3] = assay: Hoechst 33342 stimulated ATPase activity of TM287/288 reconstituted into proteoliposomes; type: biochemical, Thermotoga maritima; settings: 50, 100 and 150 µM Hoechst 33342, 50°C, wildtype and spin-labeled mutants, maximal at 50 or 100 µM, bell-shaped
Protocol: To carry out DEER measurements in a lipidic environment (pair 131^TM288/248^TM288) as well as for the investigation of drug-stimulated ATPase activity of all pairs, spin-labeled TM287/288 was reconstituted into proteoliposomes consisting of E. coli polar lipids and egg phosphatidylcholine mixed at a ratio of 3:1 in 50 mM K-HEPES pH 7.0 as described elsewhere ([Hürlimann et al., 2016]; [Geertsma et al., 2008]). […] Reconstituted TM287/288_E517Q^TM288 was used for background subtraction.

ABCB1 = tested on: ABCB1; parameters: method as in Siarheyeva et al., 2010; settings: ref Siarheyeva et al., 2010; cited from earlier work
BmrCD = molecular target: T2, BmrCD (Bacillus subtilis, UniProt O07549+O07550, C154A/C256A/C351A); assay: Inhibition of ATPase activity of BmrCD by nucleotide analogs; type: biochemical
T2 construct: made in house; host or cells: E. coli MC1061
T2 sequence (O07550 whole entry): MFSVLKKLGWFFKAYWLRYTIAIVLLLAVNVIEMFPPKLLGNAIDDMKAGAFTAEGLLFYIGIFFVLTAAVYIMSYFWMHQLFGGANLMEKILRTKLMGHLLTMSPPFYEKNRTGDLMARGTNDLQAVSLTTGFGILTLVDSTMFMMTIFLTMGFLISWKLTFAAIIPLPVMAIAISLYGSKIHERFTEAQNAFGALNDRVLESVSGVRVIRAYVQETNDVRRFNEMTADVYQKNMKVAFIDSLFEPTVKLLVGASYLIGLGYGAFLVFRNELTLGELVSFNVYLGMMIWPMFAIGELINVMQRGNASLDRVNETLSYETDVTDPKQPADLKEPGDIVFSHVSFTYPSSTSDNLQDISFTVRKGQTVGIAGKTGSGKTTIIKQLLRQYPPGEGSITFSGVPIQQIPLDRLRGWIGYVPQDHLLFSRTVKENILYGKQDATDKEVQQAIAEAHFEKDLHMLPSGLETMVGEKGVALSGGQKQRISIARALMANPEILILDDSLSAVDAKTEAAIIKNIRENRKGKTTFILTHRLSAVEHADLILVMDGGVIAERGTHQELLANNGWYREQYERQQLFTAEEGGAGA
T2 sequence (O07549 whole entry C154A/C256A/C351A): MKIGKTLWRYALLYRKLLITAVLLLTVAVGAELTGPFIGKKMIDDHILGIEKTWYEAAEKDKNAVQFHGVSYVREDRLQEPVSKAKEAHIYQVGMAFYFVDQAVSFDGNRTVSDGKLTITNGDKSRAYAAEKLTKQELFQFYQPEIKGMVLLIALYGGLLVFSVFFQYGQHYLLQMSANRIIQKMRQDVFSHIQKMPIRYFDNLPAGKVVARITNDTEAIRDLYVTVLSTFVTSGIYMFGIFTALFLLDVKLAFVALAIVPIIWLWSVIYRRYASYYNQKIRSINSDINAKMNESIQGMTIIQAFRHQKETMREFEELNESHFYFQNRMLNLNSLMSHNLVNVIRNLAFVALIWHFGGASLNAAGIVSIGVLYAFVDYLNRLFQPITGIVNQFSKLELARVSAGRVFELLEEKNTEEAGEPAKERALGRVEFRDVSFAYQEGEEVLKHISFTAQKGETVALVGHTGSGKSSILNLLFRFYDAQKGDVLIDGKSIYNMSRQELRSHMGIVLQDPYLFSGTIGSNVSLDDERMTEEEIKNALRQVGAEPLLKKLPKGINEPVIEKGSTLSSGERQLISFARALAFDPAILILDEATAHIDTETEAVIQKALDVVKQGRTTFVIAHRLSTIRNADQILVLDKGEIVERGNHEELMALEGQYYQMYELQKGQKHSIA
Protocol: as §1, §2, §3, §4, §5

TM287/288 [4] = molecular target: T1, TM287/288; assay: ATPase activity of detergent-purified wildtype TM287/288 (molybdate/malachite green phosphate detection); type: biochemical
[5] = spin-labeled pair 50^TM287-271^TM287 WT
[6] = spin-labeled pair 131^TM288-248^TM288 WT
[7] = spin-labeled pair 460^TM287-363^TM288 WT
[8] = TM287/288, 50°C, read-out: IC50
[9] = wildtype TM287/288, ATP-Mg + 2.5 mM EDTA, 50°C, detergent
[10] = wildtype TM287/288, ATP-Mg + 1 mM vanadate, 50°C, detergent

Q: For Nc1ncnc2c1ncn2[C@@H]1O[C@H](COP(=O)(O)OP(=O)(O)O)[C@@H](O)[C@H]1O [ADP], which IF frac (TM287/288 [1]; [5]) is on record?
A: Its IF frac is 90.1%.

Q: What about the OF frac (TM287/288 [1]; [5]) of the same compound?
A: Its OF frac is 9.9%.

Q: And the IF frac (TM287/288 [1]; [6])?
A: Its IF frac is 100%.

Q: What about the OF frac (TM287/288 [1]; [6]) of the same compound?
A: Its OF frac is 0%.

Q: What about the IF frac (TM287/288 [1]; [7]) of the same compound?
A: Its IF frac is 82%.

Q: What about the OF frac (TM287/288 [1]; [7]) of the same compound?
A: Its OF frac is 18%.

Q: What about the IC50 (TM287/288 [2]; TM287/288, 25°C, read-out: IC50) of the same compound?
A: Its IC50 is 505 ± 21 µM.

Q: What about the Ki (TM287/288 [2]; TM287/288, 25°C, read-out: Ki) of the same compound?
A: Its Ki is 3.28 ± 0.44 µM.

Q: And the IC50 (TM287/288 [2]; [8])?
A: Its IC50 is 681 ± 160 µM.

Q: And the Ki (TM287/288 [2]; TM287/288, 50°C, read-out: Ki)?
A: The Ki was 10.4 ± 2.9 µM.

Q: With CCOc1ccc(-c2nc3ccc(-c4nc5ccc(N6CCN(C)CC6)cc5[nH]4)cc3[nH]2)cc1 [Hoechst 33342] as the compound, how does the “stimulation of ATPase activity” value (TM287/288 [3]) read?
A: The value was “robust ATPase stimulation”.

Q: For Nc1ncnc2c1ncn2[C@@H]1O[C@H](CO[P@](=O)(O)O[P@](=O)(O)O[P@@](=O)(O)S)[C@@H](O)[C@H]1O [ATPγS], which “rate of hydrolysis of ATPγS relative to that determined for ATP” value (ABCB1) is on record?
A: The value was 0.4%.

Q: What about the IF frac (TM287/288 [1]; [5]) of the same compound?
A: The IF frac was 45.2%.

Q: What about the OF frac (TM287/288 [1]; [5]) of the same compound?
A: Its OF frac is 54.8%.

Q: And the IF frac (TM287/288 [1]; [6])?
A: The IF frac was 72.9%.

Q: And the OF frac (TM287/288 [1]; [6])?
A: Its OF frac is 27.1%.

Q: What about the IF frac (TM287/288 [1]; [7]) of the same compound?
A: The IF frac was 63.7%.

Q: What about the OF frac (TM287/288 [1]; [7]) of the same compound?
A: The OF frac was 36.3%.

Q: And the IC50 (TM287/288 [2]; IC50, TM287/288, 25°C)?
A: Its IC50 is 31.4 ± 2.8 µM.

Q: And the IC50 (TM287/288 [2]; IC50, TM287/288, 50°C)?
A: Its IC50 is 2.86 ± 0.08 µM.

Q: And the Ki (TM287/288 [2]; Ki, TM287/288, 25°C)?
A: Its Ki is 0.204 ± 0.032 µM.

Q: And the Ki (TM287/288 [2]; Ki, TM287/288, 50°C)?
A: The Ki was 0.0439 ± 0.0062 µM.

Q: And the IC50 (BmrCD)?
A: Its IC50 is 221 ± 24 µM.

Q: And the Ki (BmrCD)?
A: Its Ki is 26.7 ± 3.3 µM.

Q: With O=C(O)CN(CCN(CC(=O)O)CC(=O)O)CC(=O)O [EDTA] as the compound, how does the “ATPase activity in the presence of EDTA” value (TM287/288 [4]; 2.5 mM EDTA added to chelate Mg2+, wildtype TM287/288) read?
A: Its value is “did not observe any detectable ATPase activity”.

Q: What about the ATPase activity (TM287/288 [4]; [9]) of the same compound?
A: Its ATPase activity is less than 0.1 nmol Pi/min/mg protein.

Q: And the “ATPase activity, % of wildtype” value (TM287/288 [4]; [9])?
A: The value was less than 0.005%.

Q: And the Turnover per transporter (TM287/288 [4]; [9])?
A: Its Turnover per transporter is less than 0.01 min⁻¹.

Q: For [Na+].[Na+].[Na+].[O]=[V]([O-])([O-])[O-] [Vanadate, sodium orthovanadate], which “residual ATPase activity” value (TM287/288 [2]; 1 mM vanadate, 50°C, TM287/288) is on record?
A: The value was 8%.

Q: And the IC50 (TM287/288 [2]; [8])?
A: The IC50 was 4.9 ± 0.29 µM.

Q: And the Ki (TM287/288 [2]; TM287/288, 50°C, read-out: Ki)?
A: The Ki was 0.0751 ± 0.0114 µM.

Q: What about the ATPase activity (TM287/288 [2]; [10]) of the same compound?
A: The ATPase activity was 165 ± 20 nmol Pi/min/mg protein.

Q: What about the “ATPase activity, % of wildtype” value (TM287/288 [2]; [10]) of the same compound?
A: The value was 7.71%.

Q: What about the Turnover per transporter (TM287/288 [2]; [10]) of the same compound?
A: The Turnover per transporter was 21.9 min⁻¹.

Q: What about the “turnover rate, ATP hydrolysis inhibited by vanadate” value (TM287/288 [2]; wildtype TM287/288, vanadate, 50°C) of the same compound?
A: Its value is 22 ATP min^−1.
